# Measurements as given in patent US10172994B2, “Hemodiafiltration method” (Fresenius Medical Care Deutschland GmbH, priority 2012, dated 2019).
# Target: bovine serum albumin (Bos taurus, UniProt P02769)
# Test: HF field effect 1 to 170 MHz on separation of phenylacetic acid from BSA solution in dialysis module (HPLC)
# Assay type: in vitro ADME
# Conditions: BSA 60 mg/ml, 1 mmol/l toxin
# Experimental: Examination of the HF field effect in the frequency range 1 to 170 MHz.
# The HF field was varied in subbands of 10 MHz in the frequency range 1-170 MHz and was compared with a control experiment without an HF field.
# The quantitative determination of the phenylacetic acid was performed using HPLC.
# The results of the experiments are collected in FIG. 4. […] The effect was particularly pronounced at 54.6% in the subband from 110 to 120 MHz.
# Sequence of bovine serum albumin (P02769 25-607): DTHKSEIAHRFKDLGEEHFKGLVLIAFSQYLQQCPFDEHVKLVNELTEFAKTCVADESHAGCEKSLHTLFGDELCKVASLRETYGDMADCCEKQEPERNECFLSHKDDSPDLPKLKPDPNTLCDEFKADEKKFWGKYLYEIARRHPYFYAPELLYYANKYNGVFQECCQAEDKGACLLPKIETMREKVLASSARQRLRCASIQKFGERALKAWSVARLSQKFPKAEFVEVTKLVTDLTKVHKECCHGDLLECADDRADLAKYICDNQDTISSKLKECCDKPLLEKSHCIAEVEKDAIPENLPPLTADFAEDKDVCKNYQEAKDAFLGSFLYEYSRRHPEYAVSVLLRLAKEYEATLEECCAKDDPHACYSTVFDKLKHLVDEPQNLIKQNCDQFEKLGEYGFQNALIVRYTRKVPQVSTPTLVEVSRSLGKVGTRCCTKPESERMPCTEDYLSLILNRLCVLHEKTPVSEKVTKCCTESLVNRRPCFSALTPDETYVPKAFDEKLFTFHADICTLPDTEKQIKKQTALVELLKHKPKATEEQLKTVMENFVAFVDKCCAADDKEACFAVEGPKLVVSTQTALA
structure (smiles),measurement,setting,value
O=C(O)Cc1ccccc1 [phenylacetic acid],increase of separation rate under the influence of the HF field,HF field 1-170 MHz in subbands of 10 MHz vs control without HF field,at least 45.3%
same,increase of separation rate under the influence of the HF field,subband from 110 to 120 MHz vs control without HF field,54.6%
